# Measured values as given in patent US10889609B2, “Mannitol-based amphipathic compound and use thereof” (Industry-University Cooperation Foundation Hanyang …, priority 2015, dated 2021).
# Where “and” joins values, the source holds several entries; their conditions need not be identical. Identical values can stand only once.
# What was measured:
# [1] = Critical micellar concentration (CMC) by hydrophobic fluorescence stain diphenylhexatriene (DPH); assay type: physicochemical; conditions: aqueous solution
# Excerpt: A method of measuring the CMC is not particularly limited, but the methods widely known in the related art may be used. For example, the CMC may be measured by a fluorescence detection method using diphenylhexatriene (DPH).
# (§1) To determine characteristics of the MNAs of Preparative Example 1 to 10 synthesized according to the synthesis method of Example 1, the molecular weights (M.W.) and critical micellar concentrations (CMCs) of the MNAs and the hydrodynamic radii (Rh) of the formed micelles were measured.
# (§2) Specifically, the critical micellar concentration (CMC) was measured using a hydrophobic fluorescence stain (diphenylhexatriene (DPH)), and the hydrodynamic radii (Rh) of the micelles formed by each of the preparations were measured by a dynamic light scattering (DLS) experiment. The measured results were compared to those of DDM that is a conventional amphipathic molecule (a detergent), and are listed in Table 1.
# [2] = Hydrodynamic radius and size distribution of micelles by dynamic light scattering (DLS); assay type: physicochemical
# Excerpt: A method of measuring the radius of the micelle is not particularly limited, but the methods widely known in the related art may be used. For example, the radius of the micelle may be measured using a dynamic light scattering (DLS) experiment.
# as §1, §2
# Meanwhile, the size distributions of the micelles formed by the MNAs were measured using DLS, and the measurement results are shown in FIG. 17. The MNAs were used at a content of 1.0% by weight.
# boron transporter (Bor1) = molecular target: T1, boron transporter (Bor1) (Arabidopsis thaliana, UniProt Q8VYR7); assay: Structural stability and extraction of Bor1 by heat fluorescence size exclusion chromatography (hFSEC)
# T1 construct: made in house; host or cells: Saccharomyces cerevisiae FGY217
# T1 sequence (Q8VYR7 whole entry): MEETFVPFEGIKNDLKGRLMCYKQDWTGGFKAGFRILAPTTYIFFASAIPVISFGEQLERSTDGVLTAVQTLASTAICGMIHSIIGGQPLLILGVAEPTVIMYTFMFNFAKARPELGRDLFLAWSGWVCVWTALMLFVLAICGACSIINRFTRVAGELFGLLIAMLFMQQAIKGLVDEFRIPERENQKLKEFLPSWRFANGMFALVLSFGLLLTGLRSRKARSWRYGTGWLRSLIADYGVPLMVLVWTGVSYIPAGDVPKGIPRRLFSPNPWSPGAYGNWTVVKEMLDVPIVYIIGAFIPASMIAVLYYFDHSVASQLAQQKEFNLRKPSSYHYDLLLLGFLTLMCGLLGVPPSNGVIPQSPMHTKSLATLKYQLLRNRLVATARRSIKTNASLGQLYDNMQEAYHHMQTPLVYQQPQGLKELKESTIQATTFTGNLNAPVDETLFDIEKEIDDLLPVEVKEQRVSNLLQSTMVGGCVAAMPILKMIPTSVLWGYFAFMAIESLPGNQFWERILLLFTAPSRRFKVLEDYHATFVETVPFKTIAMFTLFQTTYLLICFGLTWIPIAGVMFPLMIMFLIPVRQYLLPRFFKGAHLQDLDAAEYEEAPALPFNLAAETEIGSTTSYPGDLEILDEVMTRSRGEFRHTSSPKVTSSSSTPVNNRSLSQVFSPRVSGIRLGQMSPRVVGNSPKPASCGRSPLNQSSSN
# Method: An experiment for measuring the structural stability of a boron transporter (Bor1) by the MNAs was performed. The structural stability of Bor1 was measured using heat fluorescence size exclusion chromatography (hFSEC), and the concentrations of the MNAs and DDM were CMC plus 0.04% by weight. Specifically, Bor1 of Arabidopsis thaliana was expressed in Saccharomyces cerevisiae FGY217 cells as a fusion protein having a C-terminal GFP-His tag. The cells were grown in a -URA medium supplemented with 0.1% glucose. Expression of proteins was induced by adding 2% galactose, and the cells were then cultured at 20° C. for 18 hours. Here, the cell culture was carried out according to the method described in the article by D. Drew et al. (Nat. Protoc. 2008, 3, 784-798.). The cells were collected to prepare membranes, and the cell collection was carried out according to the method described in the article by J. Leung et al. (Protein Expr. Purif. 2010, 72, 139-146.). The membranes including the Bor1-GFP fusion protein were diluted with phosphate-buffered saline (PBS, pH 7.4) until the final concentration of the total proteins reached 2.8 mg/mL. In this case, 1% by weight of DDM or 1% by weight of MNA (MNA-1, MNA-2, MNA-3, MNA-4, MNA-5, MNA-6, or MNA-7) was added to the PBS. Samples were incubated for an hour while shaking at 4° C., and insoluble materials were then removed by centrifugation at 14,000 g and 4° C. for an hour. The supernatant including the dissolved protein samples was heated at 40° C. for 10 minutes, and the strongly aggregated proteins were removed by centrifugation at 14,000 g and 4° C. for 10 minutes. 200 μL of the supernatant of the samples was injected into a Superose 6 10/300 column equilibrated with 20 mM Tris (pH 7.5), 150 mM NaCl, and 0.03% DDM. Each of elution fractions was collected in 200 μL fractions at a retention volume of 6.4 mL (e.g., 6.4 mL after elusion) in a clear bottom 96-well plate. The GFP fluorescence of each of the fractions was measured at an excitation wavelength of 470 nm and an emission wavelength of 512 nm.
# [3] = molecular target: T2, human β2 adrenergic receptor (β2AR) (Homo sapiens, UniProt P07550); assay: Bimane fluorescence spectra of mBBr-β2AR with ISO or ISO plus G-protein; assay type: biochemical; conditions: combination of ISO and G-protein, FIG. 20
# T2 construct: made in house
# T2 sequence (P07550 whole entry): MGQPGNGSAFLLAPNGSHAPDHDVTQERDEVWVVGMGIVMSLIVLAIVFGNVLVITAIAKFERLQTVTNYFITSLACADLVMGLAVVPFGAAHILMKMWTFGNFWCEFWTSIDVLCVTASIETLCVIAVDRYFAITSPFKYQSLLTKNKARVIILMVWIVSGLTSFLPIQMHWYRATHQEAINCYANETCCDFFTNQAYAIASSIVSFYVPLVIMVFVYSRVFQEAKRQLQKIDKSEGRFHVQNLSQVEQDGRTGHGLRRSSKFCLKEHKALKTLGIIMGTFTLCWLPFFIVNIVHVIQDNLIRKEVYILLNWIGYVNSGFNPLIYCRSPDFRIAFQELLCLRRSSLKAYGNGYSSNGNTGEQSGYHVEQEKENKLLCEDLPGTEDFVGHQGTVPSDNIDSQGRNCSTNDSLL
# Method: Experiments for measuring the structural stabilities of a human β2 adrenergic receptor (β2AR), a G-protein-coupled receptor (GPCR), in the MNAs were performed.
# Experiments for measuring the structural changes and structural stabilities of mBBr-β2AR by the MNAs (MNA-5, MNA-6, MNA-7) and DDM according to the presence or absence of a full agonist (isopreoterenol (ISO)) or a combination of ISO and G-protein were performed.
# Specifically, β2AR dissolved in 0.1% DDM was purified according to the method disclosed in the article by D. M. Rosenbaum et al. (Science 2007, 318, 1266-1273) and then concentrated to a concentration of approximately 1 mg/mL. […] The mBBr-labeled β2AR was cultured for 30 minutes, and the mBBr spectra thereof were measured and compared to the spectra of the mBBr-labeled receptor dissolved in 0.1% DDM. The fluorescence of the mBBr-labeled β2AR was measured at 370 nm and thus determined by emission from 430 to 510 nm at 1-nm increments with 1 nm s^−1 integration using a Spex FluoroMax-3 spectrofluorometer (Jobin Yvon Inc.) which was run in a photon counting mode through a 4-nm emission bandwidth pass. mBBr dissolved in DDM was used as the positive control. […]
# [4] = molecular target: T2, human β2 adrenergic receptor (β2AR); assay: mBBr-β2AR bimane spectra at detergent concentration below CMC; assay type: biochemical; conditions: detergent diluted to a fiftieth of its CMC, compared to DDM, FIG. 21
# Method: Experiments for comparing the structural changes of the β2AR protein by the MNAs and DDM at a concentration below CMCs of the amphipathic molecules were performed.
# Specifically, 0.5 μL of a non-ligand mBBr-labeled receptor dissolved at 50 μNI in a 20×CMC concentration of MNA-5, MNA-6, or MNA-7 was diluted with 500 μL of an NH buffer (20 mM HEPES pH 7.5, and 100 mM NaCl). The proteins were cultured for 30 minutes, and the bimane spectra thereof were measured. The receptor dissolved in 0.1% DDM was diluted with the NH buffer, and used as the control. Data was presented as an average of three separate experiments performed in triplicate.
smiles,measurement,setting,value
CCCCCCCCCCCCO[C@H]([C@@H](OCCCCCCCCCCCC)[C@H](CO[C@@H]1OC(CO)[C@@H](O)C(O)C1O)O[C@@H]1OC(CO)[C@@H](O)C(O)C1O)[C@H](CO[C@@H]1OC(CO)[C@@H](O)C(O)C1O)O[C@@H]1OC(CO)[C@@H](O)C(O)C1O (stereo partly drawn) [MNA-5],CMC,[1],~0.004 mM
same,"Rh (nm), hydrodynamic radius of micelles",[2],3.0 nm and 3.0 ± 0.01 nm
same,Bor1 extraction efficiency,"boron transporter (Bor1); 1% by weight detergent, membranes with Bor1-GFP",60%
same,level of Bor1 protein aggregation after heat treatment,"boron transporter (Bor1); hFSEC, 40° C. for 10 minutes, FIG. 18",lower level of Bor1 aggregation than DDM
same,bimane fluorescence spectra of mBBr-β2AR,[3],slightly higher fluorescence intensity than DDM
same,stability of β2AR,[4],secured for a prolonged period of time
